Laboratory results published in US6548518B2, “Methods of treating gastro-esophogeal reflux disease using (-) norcisapride in combination with proton pump inhibitors or H2 receptor antagonists” (Sepracor, Inc., priority 1999, dated 2003).

Assays:
[1] = co-administration with ketoconazole; inhibition of metabolic elimination of cisapride; cited from earlier work
5-HT3 receptor = target: T1, 5-HT3 receptor (Mus musculus, UniProt P23979); assay: Radioligand binding to 5-HT3 receptor subtypes derived from N1E-115 cells (Cerep); settings: Table 3; ratio of IC50 at 5-HT3 to IC50 at 5-HT4
T1 construct: host or cells: N1E-115 cells
T1 sequence (P23979 24-489): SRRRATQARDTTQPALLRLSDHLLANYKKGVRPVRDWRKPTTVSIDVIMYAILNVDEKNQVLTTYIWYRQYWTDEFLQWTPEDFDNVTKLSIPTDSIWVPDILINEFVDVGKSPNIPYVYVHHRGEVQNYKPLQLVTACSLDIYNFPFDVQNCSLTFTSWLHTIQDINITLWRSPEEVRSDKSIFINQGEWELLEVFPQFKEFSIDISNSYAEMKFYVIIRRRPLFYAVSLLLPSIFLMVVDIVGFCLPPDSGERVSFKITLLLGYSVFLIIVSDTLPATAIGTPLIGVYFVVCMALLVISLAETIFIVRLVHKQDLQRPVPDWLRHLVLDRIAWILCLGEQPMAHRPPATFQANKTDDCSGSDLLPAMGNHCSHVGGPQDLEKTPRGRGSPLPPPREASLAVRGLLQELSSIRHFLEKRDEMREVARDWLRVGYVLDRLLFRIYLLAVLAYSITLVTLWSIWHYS
Protocol: Following incubation with the appropriate ligands, the preparations were rapidly filtered under vacuum through GF/B glass fiber filters and washed with ice-cold buffer using a Brandel or Packard cell harvester.
Specific radioligand binding to the receptor was defined as the difference between total binding and nonspecific binding determined in the presence of an excess of unlabeled ligand. Results were expressed as a percent inhibition of specific binding obtained in the presence of the compounds.

5-HT3/5-HT4 Ratio (5-HT3 receptor) | SMILES | increase of the steady-state plasma levels [1] [fold]
 | COc1cc(N)c(Cl)cc1C(=O)N[C@H]1CCN(CCCOc2ccc(F)cc2)C[C@H]1OC (racemic) [(±) Cisapride, cis-4-amino-5-chloro-N-[1-[3-(4-fluorophenoxy)propyl]-3-methoxy-4-piperidinyl]-2-methoxybenzamide] | 8
0.012 | COc1cc(N)c(Cl)cc1C(=O)NC1CCNCC1OC (racemic) [(±) Norcisapride, 4-amino-5-chloro-N-(3-methoxy-4-piperidinyl)-2-methoxybenzamide] | 
0.014 | COc1cc(N)c(Cl)cc1C(=O)NC1CCNCC1OC (single isomer, unassigned; (+)) [(+) Norcisapride] | 
0.023 | COc1cc(N)c(Cl)cc1C(=O)NC1CCNCC1OC (single isomer, unassigned; (-)) [(−) Norcisapride] | 
